Assay results: PubChem BioAssay (NCI)
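These data come from cells grown in 96-well plates and exposed to compound for 48 hours at five concentrations. GI50 is the concentration that inhibits growth by half. TGI marks complete inhibition of growth.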

Key:
Test in all cases: DTP human tumour cell line panel, 48 h
MOLT-4 leukemia = system: MOLT-4 leukemia
K-562 leukemia = system: K-562 leukemia
OVCAR-8 ovarian = system: OVCAR-8 ovarian
A549 NSCLC = system: A549 NSCLC
UACC-257 melanoma = system: UACC-257 melanoma
SR leukemia = system: SR leukemia
NCI-H23 lung = system: NCI-H23 lung
U251 CNS = system: U251 CNS
SW-620 colon = system: SW-620 colon
OVCAR-3 ovarian = system: OVCAR-3 ovarian
EKVX NSCLC = system: EKVX NSCLC
SK-MEL-28 melanoma = system: SK-MEL-28 melanoma
LOX IMVI melanoma = system: LOX IMVI melanoma
MCF7 breast = system: MCF7 breast
CAKI-1 renal = system: CAKI-1 renal
CCRF-CEM leukemia = system: CCRF-CEM leukemia
MDA-MB-435 = system: MDA-MB-435
OVCAR-5 ovarian = system: OVCAR-5 ovarian
A498 renal = system: A498 renal
SK-MEL-2 melanoma = system: SK-MEL-2 melanoma
HOP-92 NSCLC = system: HOP-92 NSCLC
ACHN renal = system: ACHN renal
TK-10 renal = system: TK-10 renal
COLO 205 colon = system: COLO 205 colon
SN12C renal = system: SN12C renal
HS 578T breast = system: HS 578T breast
NCI-H226 lung = system: NCI-H226 lung
SF-295 CNS = system: SF-295 CNS
NCI-H460 lung = system: NCI-H460 lung
SK-OV-3 ovarian = system: SK-OV-3 ovarian
NCI/ADR-RES ovarian = system: NCI/ADR-RES ovarian
T-47D breast = system: T-47D breast
M14 melanoma = system: M14 melanoma
SF-268 CNS = system: SF-268 CNS
PC-3 prostate = system: PC-3 prostate
SNB-75 CNS = system: SNB-75 CNS
MALME-3M melanoma = system: MALME-3M melanoma
HCC-2998 colon = system: HCC-2998 colon
NCI-H522 lung = system: NCI-H522 lung
BT-549 breast = system: BT-549 breast
HOP-62 NSCLC = system: HOP-62 NSCLC
SK-MEL-5 melanoma = system: SK-MEL-5 melanoma
SNB-19 CNS = system: SNB-19 CNS
HCT-15 colon = system: HCT-15 colon
DU-145 prostate = system: DU-145 prostate
UO-31 renal = system: UO-31 renal
KM12 colon = system: KM12 colon
UACC-62 melanoma = system: UACC-62 melanoma
786-0 renal = system: 786-0 renal
HCT-116 colon = system: HCT-116 colon
OVCAR-4 ovarian = system: OVCAR-4 ovarian
HT29 colon = system: HT29 colon
SF-539 CNS = system: SF-539 CNS
HL-60(TB) leukemia = system: HL-60(TB) leukemia
RPMI-8226 leukemia = system: RPMI-8226 leukemia
MDA-MB-231 breast = system: MDA-MB-231 breast
IGROV1 ovarian = system: IGROV1 ovarian

CC(Nc1c(C#N)cnc2ccc(-c3cncc(-c4n[nH]c(=O)o4)c3)cc12)c1ccccc1 (centres undefined) showed a GI50 (MOLT-4 leukemia) of 3.02 µM, a TGI (MOLT-4 leukemia) of 76 µM and a GI50 (K-562 leukemia) of 4.42 µM. For the same molecule, the TGI (K-562 leukemia) was greater than 100 µM, the GI50 (OVCAR-8 ovarian) was 3.63 µM and the TGI (OVCAR-8 ovarian) was 32.9 µM. It also gave a GI50 (A549 NSCLC) of 3.64 µM, a TGI (A549 NSCLC) of 29.2 µM and a GI50 (UACC-257 melanoma) of 4.48 µM. The TGI (UACC-257 melanoma) was 22.5 µM, the GI50 (SR leukemia) was 2.79 µM and the TGI (SR leukemia) was 46.8 µM. For the same molecule, the GI50 (NCI-H23 lung) was 3.12 µM, the TGI (NCI-H23 lung) was 14.5 µM and the GI50 (U251 CNS) was 2.36 µM. For the same molecule, the TGI (U251 CNS) was 14.4 µM, the GI50 (SW-620 colon) was 3.39 µM and the TGI (SW-620 colon) was 18.9 µM. It also gave a GI50 (OVCAR-3 ovarian) of 1.92 µM, a TGI (OVCAR-3 ovarian) of 5.47 µM and a GI50 (EKVX NSCLC) of 2.46 µM. For the same molecule, the TGI (EKVX NSCLC) was 8.59 µM, the GI50 (SK-MEL-28 melanoma) was 3.4 µM and the TGI (SK-MEL-28 melanoma) was 14.7 µM. For the same molecule, the GI50 (LOX IMVI melanoma) was 1.94 µM, the TGI (LOX IMVI melanoma) was 8.44 µM and the GI50 (MCF7 breast) was 2.64 µM. For the same molecule, the TGI (MCF7 breast) was 15.8 µM, the GI50 (CAKI-1 renal) was 3.69 µM and the TGI (CAKI-1 renal) was 34.5 µM. The GI50 (CCRF-CEM leukemia) was 3.7 µM, the TGI (CCRF-CEM leukemia) was greater than 100 µM and the GI50 (MDA-MB-435) was 3.59 µM. It also gave a TGI (MDA-MB-435) of 29.5 µM, a GI50 (OVCAR-5 ovarian) of 3.6 µM and a TGI (OVCAR-5 ovarian) of 22.9 µM. It also gave a GI50 (A498 renal) of 1.77 µM, a TGI (A498 renal) of 5.95 µM and a GI50 (SK-MEL-2 melanoma) of 2.24 µM. The TGI (SK-MEL-2 melanoma) was 6.66 µM, the GI50 (HOP-92 NSCLC) was 2 µM and the TGI (HOP-92 NSCLC) was 7.27 µM. For the same molecule, the GI50 (ACHN renal) was 3.57 µM, the TGI (ACHN renal) was 13.3 µM and the GI50 (TK-10 renal) was 3.83 µM. The TGI (TK-10 renal) was 44.6 µM, the GI50 (COLO 205 colon) was 2.85 µM and the TGI (COLO 205 colon) was 14.8 µM. It also gave a GI50 (SN12C renal) of 2.73 µM, a TGI (SN12C renal) of 13.7 µM and a GI50 (HS 578T breast) of 1.9 µM. For the same molecule, the TGI (HS 578T breast) was 5.47 µM, the GI50 (NCI-H226 lung) was 2.56 µM and the TGI (NCI-H226 lung) was 13.8 µM. It also gave a GI50 (SF-295 CNS) of 2.64 µM, a TGI (SF-295 CNS) of 10.3 µM and a GI50 (NCI-H460 lung) of 3.2 µM. The TGI (NCI-H460 lung) was 14.9 µM, the GI50 (SK-OV-3 ovarian) was 4.51 µM and the TGI (SK-OV-3 ovarian) was 28.3 µM. For the same molecule, the GI50 (NCI/ADR-RES ovarian) was 20.2 µM, the TGI (NCI/ADR-RES ovarian) was 81.4 µM and the GI50 (T-47D breast) was 2.36 µM. The TGI (T-47D breast) was greater than 100 µM, the GI50 (M14 melanoma) was 3.87 µM and the TGI (M14 melanoma) was 33.4 µM. For the same molecule, the GI50 (SF-268 CNS) was 2.62 µM, the TGI (SF-268 CNS) was 9.88 µM and the GI50 (PC-3 prostate) was 3.25 µM. For the same molecule, the TGI (PC-3 prostate) was greater than 100 µM, the GI50 (SNB-75 CNS) was 2.15 µM and the TGI (SNB-75 CNS) was 7.76 µM. It also gave a GI50 (MALME-3M melanoma) of 2.17 µM, a TGI (MALME-3M melanoma) of 9.36 µM and a GI50 (HCC-2998 colon) of 3.48 µM. The TGI (HCC-2998 colon) was 14.1 µM, the GI50 (NCI-H522 lung) was 3.31 µM and the TGI (NCI-H522 lung) was 16.2 µM. For the same molecule, the GI50 (BT-549 breast) was 1.35 µM, the TGI (BT-549 breast) was 5.48 µM and the GI50 (HOP-62 NSCLC) was 3.51 µM. It also gave a TGI (HOP-62 NSCLC) of 24.7 µM, a GI50 (SK-MEL-5 melanoma) of 1.68 µM and a TGI (SK-MEL-5 melanoma) of 3.07 µM. The GI50 (SNB-19 CNS) was 2.77 µM, the TGI (SNB-19 CNS) was 14.6 µM and the GI50 (HCT-15 colon) was 3.06 µM. The TGI (HCT-15 colon) was 13.2 µM, the GI50 (DU-145 prostate) was 2.98 µM and the TGI (DU-145 prostate) was 15.6 µM. The GI50 (UO-31 renal) was 1.77 µM, the TGI (UO-31 renal) was 8.79 µM and the GI50 (KM12 colon) was 3.65 µM. For the same molecule, the TGI (KM12 colon) was 17.2 µM, the GI50 (UACC-62 melanoma) was 1.96 µM and the TGI (UACC-62 melanoma) was 4.87 µM. The GI50 (786-0 renal) was 2.44 µM, the TGI (786-0 renal) was 24.2 µM and the GI50 (HCT-116 colon) was 2.65 µM. The TGI (HCT-116 colon) was 8.75 µM, the GI50 (OVCAR-4 ovarian) was 2.84 µM and the TGI (OVCAR-4 ovarian) was 24.3 µM. The GI50 (HT29 colon) was 3.66 µM, the TGI (HT29 colon) was 31.1 µM and the GI50 (SF-539 CNS) was 2.53 µM. For the same molecule, the TGI (SF-539 CNS) was 10.3 µM, the GI50 (HL-60(TB) leukemia) was 8.19 µM and the TGI (HL-60(TB) leukemia) was 72.5 µM. For the same molecule, the GI50 (RPMI-8226 leukemia) was 2.52 µM, the TGI (RPMI-8226 leukemia) was greater than 100 µM and the GI50 (MDA-MB-231 breast) was 2.15 µM. It also gave a TGI (MDA-MB-231 breast) of 9.65 µM, a GI50 (IGROV1 ovarian) of 1.55 µM and a TGI (IGROV1 ovarian) of 4.77 µM.
